Data reported in publication PMC9923724, “Half sandwich-type osmium, ruthenium, iridium and rhodium complexes with bidentate glycosyl heterocyclic ligands induce cytostasis in platinum-resistant ovarian cancer cells and bacteriostasis in Gram-positive multiresistant bacteria” (Frontiers in Chemistry, 2023).
Values joined by “and” are separate entries in the source; they are usually repeats but may differ in a detail not shown here. Equal entries are not always repeated.

What was measured:
Format in all cases: cell-based
[1] = system: ID8 ovarian cancer cells; experiment: MTT reduction assay (4 h) on ID8 cells
Procedure: (§1) 3 × 10^3 A2780 cells, 2 × 10^3 ID8 cells and 4 × 10^3 primary fibroblasts were plated to 96 well plates. Cells were treated with the compounds in the concentrations indicated for either 4 h for an MTT assay or for 48 h for an SRB assay. Data is represented as average ± SD, from three biological replicates; individual assays were performed in duplicates. Values were normalized for vehicle treated cells, absorbance for vehicle treated cells equals to 1. Statistical significance was assessed using two-way ANOVA test comparing the free ligand and each complex as a complex-ligand pair. Before the test normality was assessed using the D’Agostino-Pearson test. The ID8 SRB Ir-7+L-7 dataset had lognormal distribution. […] All other datasets had normal distribution. For better visibility the p values are presented in an excel sheet at https://figshare.com/s/2c942a812caea8869a67. Non-linear regression was performed on the A2780 SRB and the ID8 SRB datasets.
(§2) ID8 cells were cultured in high glucose DMEM (4.5 g/L glucose) medium supplemented with 4% fetal calf serum, 2 mM glutamine, 1% penicillin-streptomycin, 1% ITS supplement (I3146).
MTT reduction assay measures the activity of mitochondrial complex I and can be used to detect toxicity ([Virág et al., 1998]; [Henslee et al., 2016]). The assay was performed similar to ([Bakondi et al., 2003]). Briefly, cells were plated in 96 well plates the day before the assay. Cells were treated with the compounds for 4 h, then MTT was added in 0.5 mg/ml final concentration and cells were incubated at 37°C in a cell incubator. Culture media was removed and the reduced MTT dye was dissolved in dimethyl-sulfoxide (DMSO) and plates were measured in a plate photometer (Thermo Scientific Multiscan GO spectrophotometer, Waltham, MA, United States) at 540 nm. On each plate wells were designed to contain untreated/vehicle-treated cells. In calculations the readings for these wells was considered as 1 and all readings were expressed relative to these values.

[2] = system: ID8 ovarian cancer cells; experiment: SRB assay (48 h) on ID8 cells
Procedure: as §1, §2
(§3) The assay was performed similar to ([Kovács et al., 2019]). Cells were seeded in 96 well plates the day before the assay. Cells were treated with the compounds for 48 h. Cells were fixed with 10% trichloroacetic acid (TCA). Fixed cells were washed in distilled water 3 times followed by staining with SRB (0.4 m/V% dissolved in 1% acetic acid) for 10 min. Stained cells were washed in 1% acetic acid 5 times; acetic acid was removed and cells were left to dry. Protein-bound SRB was released by adding 100 µl 10 mM Tris base. Plates were measured in a plate photometer (Thermo Scientific Multiscan GO spectrophotometer, Waltham, MA, United States) at 540 nm. On each plate wells were designed to contain vehicle-treated cells. In calculations the readings for these wells was considered as 1 and all readings were expressed relative to these values.
(§4) Statistical analysis was performed using 8.0.1 version of Graphpad Prism. Values were tested for normal distribution using the D’Agostino and Pearson normality test. When necessary, values were log normalized or were normalized using the Box-Cox normalization method ([Box and Cox, 1964]) as indicated in the figure captions. Non-linear regression was performed using the built-in “[Inhibitor] vs. response—Variable slope (four parameters), least square fit” utility of Graphpad that yielded IC50 and Hill slope values.

[3] = system: Saos osteosarcoma cells; experiment: SRB assay (48 h) on Saos cells
Procedure: 3 × 10^3 Capan2 cells, 2 × 10^3 Saos cells and 8 × 10^3 L428 were plated to 96 well plates. Cells were treated with the compounds in the concentrations for 48 h. Then for Capan2 and Saos SRB assay was performed, L428 cells were counted using a Burker chamber. Data is represented as average ± SD, from three biological replicates; individual assays were performed in duplicates. Values were normalized for vehicle treated cells, absorbance for vehicle treated cells equals to 1. Normality was checked using the Shapiro-Wilk test. The Saos Os-7 dataset was normalized using the Box-Cox method, other datasets had normal distribution. Each complex was individually assessed for statistical significance using One-way ANOVA test followed by Dunnett’s post hoc test; all values were compared to the values of the lowest concentration. For better visibility the p values are presented in an excel sheet at https://figshare.com/s/2c942a812caea8869a67. Non-linear regression was performed on the Capan2 and Saos datasets.
Saos cells were maintained in DMEM (4.5 g/L glucose) medium supplemented with 10% fetal calf serum, 2 mM glutamine, 1% penicillin-streptomycin.
as §3, §4

[4] = system: 4-hydroxynonenal (4HNE)-modified proteins in A2780 cells; experiment: Western blot for 4HNE-modified proteins in A2780 cells; settings: IC50 concentrations, 15 or 30 min, bands ∼70 kDa and ∼60 kDa
Procedure: FIGURE 9 (A) Vitamin E, a lipid soluble antioxidant blocks the cytostatic activity of the bioactive complexes. 1.5 × 10^3 A2780 cells were plated to 96 well plates. Cells were treated with the compounds in the concentrations indicated for 48 h followed by an SRB assay. Data is represented as average ± SD, from four biological replicates; individual assays were performed in duplicates. Values were normalized for vehicle treated cells, absorbance for vehicle treated cells equals to 1. Normality was checked using the D’Agostino-Pearson normality test. […] Statistical significance was assessed using two-way ANOVA test comparing all measurement points. * and *** represent statistical significance at p <0.05 and 0.001, respectively, between the lowest concentration and the higher concentrations among non-vitamin E-treated cells. ! and !!! represent statistical significance at p <0.05 and 0.001, respectively, between the lowest concentration and the higher concentrations among vitamin E-treated cells. #, ## and ### represent statistical significance at p <0.05, p <0.01 and 0.001, respectively, between the non-vitamin E-treated vs. vitamin E-treated cells. […] Cells were harvested and lysed. Cellular proteins were separated on a 10% SDS-PAGE gel and were blotted. […]
To complement the vitamin E experiments we assessed oxidative stress by detecting the formation of 4-hydroxynonenal (4HNE)-modified proteins, a hallmark of oxidative stress ([Ayala et al., 2014]; [Zhang and Forman, 2017]). […]
SDS-polyacrylamide gel electrophoresis and Western blot was performed as in ([Márton et al., 2018]) using an antibody against 4HNE (Abcam (ab46545) 1:1000) that was detected using a corresponding peroxidase-conjugated secondary antibody (1:10000, Cell Signaling Technology, Inc., Beverly, MA, United States). […] ECL and amido black pictures were captured using the ChemiDoc Touch Imaging System (Bio-Rad Laboratories, Inc., Hercules, California, United States) and the pictures were evaluated using the Image Lab software (Bio-Rad).

SMILES | ID8 MTT Max. (maximal inhibition) [1] | IC50 [2] | ID8 SRB IC50 [2] | ID8 SRB Max. (maximal inhibition) [2] | IC50 [3] | SAOS SRB Max. (maximal inhibition) [3] | 4HNE formation (4HNE-modified proteins) [4]
Cc1ccc(C(C)C)cc1.F[P-](F)(F)(F)(F)F.O=C(OCC1OC(n2cc(-c3ccc4ccccc4n3)nn2)C(OC(=O)c2ccccc2)C(OC(=O)c2ccccc2)C1OC(=O)c1ccccc1)c1ccccc1.[Cl][Ru+] (mixture of isomers) [Ru-7] | 32.56% | 1.14 µM | submicromolar or low micromolar | >90% | 1.18 µM | 33.64% | gross induction of 4HNE formation
Cc1c(C)c(C)[c-](C)c1C.F[P-](F)(F)(F)(F)F.O=C(OCC1OC(n2cc(-c3ccc4ccccc4n3)nn2)C(OC(=O)c2ccccc2)C(OC(=O)c2ccccc2)C1OC(=O)c1ccccc1)c1ccccc1.[Cl][Ir+2] (mixture of isomers) [Ir-7] | 19.23% | 0.799 µM | submicromolar or low micromolar | >90% | 1.58 µM | 33% | gross induction of 4HNE formation
Cc1ccc(C(C)C)cc1.F[P-](F)(F)(F)(F)F.O=C(OCC1OC(n2cc(-c3ccc4ccccc4n3)nn2)C(OC(=O)c2ccccc2)C(OC(=O)c2ccccc2)C1OC(=O)c1ccccc1)c1ccccc1.[Cl][Os+] (mixture of isomers) [Os-7] | 75% and 74.90% | 0.359 µM | submicromolar or low micromolar | >90% | 1.29 µM | 48.04% | gross induction of 4HNE formation
